In patent publication US8420657B2 (Novartis AG, priority 2008, dated 2013):

Assays:
[1] = tested on: JAK1/JAK2-dependent nuclear translocation of STAT1-GFP in HT1080 fibrosarcoma cells; experiment: STAT1 nuclear translocation assay (Cellomics), IFN-γ stimulated HT1080 STAT1-GFP cells; assay type: cell-based; details: Homo sapiens, HT-1080, STAT1 translocation pathway
Method in brief: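 HT1080 cells stably expressing STAT1-GFP, pre-treated 30 min with compound (10 μM–0.003 μM, 0.1% DMSO), then stimulated 2 h with 100 ng/ml IFN-γ, fixed and Hoechst-stained. Nuclear-cytoplasmic GFP differential imaged over ≥1000 cells/well, normalised to unstimulated and DMSO-stimulated wells for IC50.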

[2] = molecular target: T1, GST-JAK2(808-1132) (Homo sapiens, UniProt O60674); experiment: JAK2 kinase assay (Caliper mobility shift, LabChip 3000); assay type: biochemical
T1 construct: GST-JAK2(808-1132); purchased Invitrogen (Carlsbad, USA) #4288
T1 sequence (O60674 808-1132): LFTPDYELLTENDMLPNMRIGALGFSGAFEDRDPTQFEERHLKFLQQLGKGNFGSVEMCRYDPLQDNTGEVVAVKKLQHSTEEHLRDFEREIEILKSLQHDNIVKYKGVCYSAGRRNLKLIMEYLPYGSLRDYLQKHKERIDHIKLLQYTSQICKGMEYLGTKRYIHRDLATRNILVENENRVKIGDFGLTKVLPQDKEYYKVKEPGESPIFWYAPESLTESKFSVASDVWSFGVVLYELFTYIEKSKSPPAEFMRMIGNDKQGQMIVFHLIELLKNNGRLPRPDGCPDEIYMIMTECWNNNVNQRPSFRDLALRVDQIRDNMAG
Method in brief: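 Recombinant GST-JAK2(808-1132) kinase domain with FITC-labelled JAK3tide peptide substrate and ATP; 60 min at 30 °C, EDTA stop. Substrate/product ratio read by microfluidic mobility shift; compounds at 8 final concentrations, 10 to 0.003 μM.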

| SMILES | IC50 [1] [nM] | IC50 [2] [nM] |
| --- | --- | --- |
| Cc1cc(Nc2ncc3ccn(-c4ccc(S(C)(=O)=O)cc4)c3n2)ccc1F [Example 81, (4-Fluoro-3-methyl-phenyl)-[7-(4-methanesulfonyl-phenyl)-7H-pyrrolo[2,3-d]pyrimidin-2-yl]-amine] | 2700 | 18 |
| CS(=O)(=O)c1ccc(-n2ccc3cnc(Nc4cccc(Cn5ccnc5)c4)nc32)cc1 [Example 47, (3-Imidazol-1-ylmethyl-phenyl)-[7-(4-methanesulfonyl-phenyl)-7H-pyrrolo[2,3-d]pyrimidin-2-yl]-amine] | 73 | < 3 |
| O=C(c1c(F)cc(-n2ccc3cnc(Nc4ccc(N5CCNC6(CC6)C5)nc4)nc32)cc1F)N1CCOCC1 [Example 268, (4-{2-[6-(4,7-Diaza-spiro[2.5]oct-7-yl)-pyridin-3-ylamino]-pyrrolo[2,3-d]pyrimidin-7-yl}-2,6-difluoro-phenyl)-morpholin-4-yl-methanone] | 210 | 7.8 |
| Cc1ccc(Nc2ncc3ccn(-c4ccc(CN5CCS(=O)(=O)CC5)c(F)c4)c3n2)cc1Cl [Example 121, (3-Chloro-4-methyl-phenyl)-{7-[4-(1,1-dioxido-thiomorpholin-4-ylmethyl)-3-fluoro-phenyl]-7H-pyrrolo[2,3-d]pyrimidin-2-yl}-amine] | 152 | 15.5 |
| Cc1ccc(Nc2ncc3ccn(-c4ccc(C(=O)N5CCN(C)CC5)cc4)c3n2)cc1C [Example 170, {4-[2-(3,4-Dimethyl-phenylamino)-pyrrolo[2,3-d]pyrimidin-7-y]-phenyl}-(4-methyl-piperazin-1-yl)-methanone] | 374 | 17 |
| CN1CCN(C(=O)c2ccc(Nc3ncc4ccn(-c5cc(F)c(CN6CCOCC6)c(F)c5)c4n3)cc2C(F)(F)F)CC1 [Example 201, {4-[7-(3. 5-Difluoro-4-morpholin-4-ylmethyl-phenyl)-7H-pyrrolo[2,3-d]pyrimidin-2-ylamino]-2-trifluoromethyl-phenyl}-(4-methyl-piperazin-1-yl)-methanone] | 199 | < 3 |
| Cc1ccc(Nc2ncc3ccn(-c4ccc(S(C)(=O)=O)cc4)c3n2)cn1 [Example 229, [7-(4-Methanesulfonyl-phenyl)-7H-pyrrolo[2,3-d]pyrimidin-2-yl]-(6-methyl-pyridin-3-yl)-amine] | 1580 | 21 |
| COc1cc(Nc2ncc3ccn(-c4cc(F)c(CN5CCS(=O)(=O)CC5)c(F)c4)c3n2)ccc1C [Example 308, {7-[4-(1,1-Dioxido-thiomorpholin-4-ylmethyl)-3,5-difluoro-phenyl]-7H-pyrrolo[2,3-d]pyrimidin-2-yl}-(3-methoxy-4-methyl-phenyl)-amine] | 15 | < 3 |
| O=C(c1ccc(-n2ccc3cnc(Nc4cccnc4)nc32)cc1F)N1CCOCC1 [Example 224, {2-Fluoro-4-[2-(pyridin-3-ylamino)-pyrrolo[2,3-d]pyrimidin-7-yl]-phenyl}-morpholin-4-yl-methanone] | 1080 | 8.5 |
| CN1CCN(c2ccc(Nc3ncc4ccn(-c5cc(F)c(CN6CCS(=O)(=O)CC6)c(F)c5)c4n3)cn2)CC1 [Example 443, {7-[4-(1,1-Dioxido-thiomorpholin-4-ylmethyl)-3,5-difluoro-phenyl]-7H-pyrrolo[2,3-d]pyrimidin-2-yl}-[6-(4-methyl-piperazin-1-yl)-pyridin-3-yl]-amine] | 9.5 | ≤ 3 |
| CN1CCN(C(=O)c2ccc(-n3ccc4cnc(Nc5ccc(F)cc5)nc43)cc2)CC1 [Example 56, {4-[2-(4-Fluoro-phenylamino)-pyrrolo[2,3-d]pyrimidin-7-yl]-phenyl}-(4-methyl-piperazin-1-yl)-methanone] | 4680 | 32 |
| Cn1cc(Nc2ncc3ccn(-c4cc(F)c(CN5CCOCC5)c(F)c4)c3n2)cn1 [Example 247, [7-(3,5-Difluoro-4-morpholin-4-ylmethyl-phenyl)-7H-pyrrolo[2,3-d]pyrimidin-2-yl]-(1-methyl-1H-pyrazol-4-yl)-amine] | 255 | 3.7 |
| CCN(CC)CCOc1cccc(Nc2ncc3ccn(-c4ccc(S(C)(=O)=O)cc4)c3n2)c1 [Example 36, [3-(2-Diethylamino-ethoxy)-phenyl]-[7-(4-methanesulfonyl-phenyl)-7H-pyrrolo[2,3-d]pyrimidin-2-yl]-amine] | 10.9 | < 3 |
| COc1cc(Nc2ncc3ccn(-c4ccc(C(=O)N5CCOCC5)c(C)c4)c3n2)ccc1F [Example 296, {4-[2-(4-Fluoro-3-methoxy-phenylamino)-pyrrolo[2,3-d]pyrimidin-7-yl]-2-methyl-phenyl}-morpholin-4-yl-methanone] | 1100 | < 3 |
| Cc1ccc(Nc2ncc3ccn(-c4ccc(CN5CCOCC5)c(F)c4)c3n2)cc1Cl [Example 118, (3-Chloro-4-methyl-phenyl)-[7-(3-fluoro-4-morpholin-4-ylmethyl-phenyl)-7H-pyrrolo[2,3-d]pyrimidin-2-yl]-amine] | 1520 | 75 |
| CN(C)CCN(C)C(=O)c1ccc(Nc2ncc3ccn(-c4ccc(S(C)(=O)=O)cc4)c3n2)cc1 [Example 65, N-(2-Dimethylamino-ethyl)-4-[7-(4-methanesulfonyl-phenyl)-7H-pyrrolo[2,3-d]pyrimidin-2-ylamino]-N-methyl-benzamide] | 99.5 | 5.4 |
| Cc1cc(Nc2ncc3ccn(-c4cc(F)c(C(=O)N5CCOCC5)c(F)c4)c3n2)ccc1F [Example 213, {2,6-Difluoro-4-[2-(4-fluoro-3-methyl-phenylamino)-pyrrolo[2,3-d]pyrimidin-7-yl]-phenyl}-morpholin-4-yl-methanone] | 728 | 5.9 |
| CC(C)Oc1ccc(Nc2ncc3ccn(-c4ccc(CN5CCOCC5)cc4)c3n2)cc1 [Example 109, (4-Isopropoxy-phenyl)-[7-(4-morpholin-4-ylmethyl-phenyl)-7H-pyrrolo[2,3-d]pyrimidin-2-yl]-amine] | 310 | 8.3 |
| CS(=O)(=O)c1ccc(-n2ccc3cnc(Nc4ccc(C#N)cc4)nc32)cc1 [Example 95, 4-[7-(4-Methanesulfonyl-phenyl)-7H-pyrrolo[2,3-d]pyrimidin-2-ylamino]-benzonitrile] | 2360 | 16.5 |
| CC(C)Oc1ccc(Nc2ncc3ccn(-c4ccc(CC(=O)N5CCN(C)CC5)cc4)c3n2)cc1 [Example 101, 2-{4-[2-(4-Isopropoxy-phenylamino)-pyrrolo[2,3-d]pyrimidin-7-yl]-phenyl}-1-(4-methyl-piperazin-1-yl)-ethanone] | 180 | < 3 |
| Cc1ccc(Nc2ncc3ccn(-c4cc(F)c(CN5CCN(C)C(=O)C5)c(F)c4)c3n2)cc1C [Example 310, 4-{4-[2-(3,4-Dimethyl-phenylamino)-pyrrolo[2,3-d]pyrimidin-7-yl]-2,6-difluoro-benzyl}-1-methyl-piperazin-2-one] | 570 | 6.4 |
| CCOc1ccc(Nc2ncc3cc(C)n(-c4ccc(CN5CCOCC5)c(F)c4)c3n2)cc1OCC [Example 168, (3,4-Diethoxy-phenyl)-[7-(3-fluoro-4-morpholin-4-ylmethyl-phenyl)-6-methyl-7H-pyrrolo[2,3-d]pyrimidin-2-yl]-amine] | 3900 | 30.5 |
